Measurements: patent US20090012095A1, “HUMAN N-TYPE CALCIUM CHANNEL BLOCKERS” (Wyeth, priority 2002, published 2009)

What was measured:
[1] = target: T1, N-type calcium channel α1B+SFVG (Homo sapiens, UniProt Q00975, INS1237SFVG); assay: Transient expression and recording from Xenopus oocytes, calcium channel modulation; format: cell-based; conditions: transient expression
T1 construct: expressed in transfected cells; host or cells: Xenopus oocytes
Method: Representative compounds of the formulae herein are screened for activity against […] in an assay essentially as described in J. Neurosci., Aug. 15, 2001, 21(16):5944-5951, W. Xu and D. Lipscombe, using transient expression and recording from Xenopus oocytes. The assay is performed using various calcium channels (e.g., N-type calcium channel α1B+SFVG) whereby the modulation of the calcium channel is measured for each compound.
The following IC50 data were obtained for compounds 1 and 2, following the above-referenced protocols (see Table 1).

[2] = target: N-type calcium channel α1B+SFVG (Homo sapiens, UniProt Q00975); assay: Calcium channel modulation in HEK298 cells; format: cell-based
Sequence of N-type calcium channel α1B+SFVG (Homo sapiens, UniProt Q00975) (Q00975 whole entry): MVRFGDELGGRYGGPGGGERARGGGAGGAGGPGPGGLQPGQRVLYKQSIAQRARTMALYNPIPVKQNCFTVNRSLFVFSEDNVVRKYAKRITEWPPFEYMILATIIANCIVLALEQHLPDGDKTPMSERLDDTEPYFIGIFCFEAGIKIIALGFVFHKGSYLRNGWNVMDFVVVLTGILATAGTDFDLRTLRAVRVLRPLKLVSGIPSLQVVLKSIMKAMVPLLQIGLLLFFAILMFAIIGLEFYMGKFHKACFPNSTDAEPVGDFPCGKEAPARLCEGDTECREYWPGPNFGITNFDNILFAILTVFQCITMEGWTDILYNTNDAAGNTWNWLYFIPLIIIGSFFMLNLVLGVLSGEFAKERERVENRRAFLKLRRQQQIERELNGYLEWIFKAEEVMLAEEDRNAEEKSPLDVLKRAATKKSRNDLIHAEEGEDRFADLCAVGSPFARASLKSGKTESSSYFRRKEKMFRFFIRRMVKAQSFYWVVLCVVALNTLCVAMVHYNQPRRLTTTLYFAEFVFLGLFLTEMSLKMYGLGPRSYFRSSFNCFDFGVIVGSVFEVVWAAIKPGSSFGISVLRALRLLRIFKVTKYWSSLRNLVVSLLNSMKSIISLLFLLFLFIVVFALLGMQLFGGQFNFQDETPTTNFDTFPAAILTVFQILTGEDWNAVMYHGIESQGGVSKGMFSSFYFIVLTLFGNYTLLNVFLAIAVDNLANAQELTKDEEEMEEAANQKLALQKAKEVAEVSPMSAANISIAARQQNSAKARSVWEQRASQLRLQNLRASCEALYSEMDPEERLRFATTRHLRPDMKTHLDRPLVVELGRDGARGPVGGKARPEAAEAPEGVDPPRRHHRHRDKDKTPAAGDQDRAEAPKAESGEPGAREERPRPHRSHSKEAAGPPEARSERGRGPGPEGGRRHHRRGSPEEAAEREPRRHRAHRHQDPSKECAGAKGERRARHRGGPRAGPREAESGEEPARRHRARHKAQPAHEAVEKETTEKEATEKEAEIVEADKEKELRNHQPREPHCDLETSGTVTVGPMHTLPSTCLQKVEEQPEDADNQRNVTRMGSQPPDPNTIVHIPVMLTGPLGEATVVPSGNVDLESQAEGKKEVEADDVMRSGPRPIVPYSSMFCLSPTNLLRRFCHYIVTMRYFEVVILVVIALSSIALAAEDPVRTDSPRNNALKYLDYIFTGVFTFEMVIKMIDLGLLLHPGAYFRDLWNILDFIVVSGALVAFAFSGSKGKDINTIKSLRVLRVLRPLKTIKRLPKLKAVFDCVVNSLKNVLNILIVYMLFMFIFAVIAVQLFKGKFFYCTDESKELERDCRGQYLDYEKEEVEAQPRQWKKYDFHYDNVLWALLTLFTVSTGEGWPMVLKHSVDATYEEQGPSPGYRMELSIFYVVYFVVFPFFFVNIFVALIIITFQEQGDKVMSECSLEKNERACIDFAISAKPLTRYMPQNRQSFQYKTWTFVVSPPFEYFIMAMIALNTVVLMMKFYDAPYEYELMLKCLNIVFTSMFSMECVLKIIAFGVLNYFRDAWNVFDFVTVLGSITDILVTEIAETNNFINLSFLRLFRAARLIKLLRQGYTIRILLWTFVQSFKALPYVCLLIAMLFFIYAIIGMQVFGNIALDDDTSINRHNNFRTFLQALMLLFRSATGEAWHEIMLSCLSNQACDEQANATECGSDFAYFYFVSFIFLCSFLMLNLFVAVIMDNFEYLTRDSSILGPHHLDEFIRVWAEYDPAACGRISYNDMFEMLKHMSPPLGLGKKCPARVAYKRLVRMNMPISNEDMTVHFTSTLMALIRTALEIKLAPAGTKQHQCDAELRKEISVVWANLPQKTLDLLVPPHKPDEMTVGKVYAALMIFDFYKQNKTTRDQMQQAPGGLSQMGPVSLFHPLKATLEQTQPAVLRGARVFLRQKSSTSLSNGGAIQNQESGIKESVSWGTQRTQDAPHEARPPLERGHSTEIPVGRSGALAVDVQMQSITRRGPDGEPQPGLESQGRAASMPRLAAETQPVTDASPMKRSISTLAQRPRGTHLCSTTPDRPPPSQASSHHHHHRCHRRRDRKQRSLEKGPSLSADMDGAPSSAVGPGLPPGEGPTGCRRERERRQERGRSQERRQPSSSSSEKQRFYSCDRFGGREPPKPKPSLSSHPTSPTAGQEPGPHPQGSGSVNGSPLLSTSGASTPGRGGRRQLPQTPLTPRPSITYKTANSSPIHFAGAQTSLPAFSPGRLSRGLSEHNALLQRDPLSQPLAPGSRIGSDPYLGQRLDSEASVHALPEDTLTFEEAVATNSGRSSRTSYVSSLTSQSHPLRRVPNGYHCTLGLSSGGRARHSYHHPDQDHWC

T1 sequence (Q00975 with tags, fused parts or gaps INS1237SFVG): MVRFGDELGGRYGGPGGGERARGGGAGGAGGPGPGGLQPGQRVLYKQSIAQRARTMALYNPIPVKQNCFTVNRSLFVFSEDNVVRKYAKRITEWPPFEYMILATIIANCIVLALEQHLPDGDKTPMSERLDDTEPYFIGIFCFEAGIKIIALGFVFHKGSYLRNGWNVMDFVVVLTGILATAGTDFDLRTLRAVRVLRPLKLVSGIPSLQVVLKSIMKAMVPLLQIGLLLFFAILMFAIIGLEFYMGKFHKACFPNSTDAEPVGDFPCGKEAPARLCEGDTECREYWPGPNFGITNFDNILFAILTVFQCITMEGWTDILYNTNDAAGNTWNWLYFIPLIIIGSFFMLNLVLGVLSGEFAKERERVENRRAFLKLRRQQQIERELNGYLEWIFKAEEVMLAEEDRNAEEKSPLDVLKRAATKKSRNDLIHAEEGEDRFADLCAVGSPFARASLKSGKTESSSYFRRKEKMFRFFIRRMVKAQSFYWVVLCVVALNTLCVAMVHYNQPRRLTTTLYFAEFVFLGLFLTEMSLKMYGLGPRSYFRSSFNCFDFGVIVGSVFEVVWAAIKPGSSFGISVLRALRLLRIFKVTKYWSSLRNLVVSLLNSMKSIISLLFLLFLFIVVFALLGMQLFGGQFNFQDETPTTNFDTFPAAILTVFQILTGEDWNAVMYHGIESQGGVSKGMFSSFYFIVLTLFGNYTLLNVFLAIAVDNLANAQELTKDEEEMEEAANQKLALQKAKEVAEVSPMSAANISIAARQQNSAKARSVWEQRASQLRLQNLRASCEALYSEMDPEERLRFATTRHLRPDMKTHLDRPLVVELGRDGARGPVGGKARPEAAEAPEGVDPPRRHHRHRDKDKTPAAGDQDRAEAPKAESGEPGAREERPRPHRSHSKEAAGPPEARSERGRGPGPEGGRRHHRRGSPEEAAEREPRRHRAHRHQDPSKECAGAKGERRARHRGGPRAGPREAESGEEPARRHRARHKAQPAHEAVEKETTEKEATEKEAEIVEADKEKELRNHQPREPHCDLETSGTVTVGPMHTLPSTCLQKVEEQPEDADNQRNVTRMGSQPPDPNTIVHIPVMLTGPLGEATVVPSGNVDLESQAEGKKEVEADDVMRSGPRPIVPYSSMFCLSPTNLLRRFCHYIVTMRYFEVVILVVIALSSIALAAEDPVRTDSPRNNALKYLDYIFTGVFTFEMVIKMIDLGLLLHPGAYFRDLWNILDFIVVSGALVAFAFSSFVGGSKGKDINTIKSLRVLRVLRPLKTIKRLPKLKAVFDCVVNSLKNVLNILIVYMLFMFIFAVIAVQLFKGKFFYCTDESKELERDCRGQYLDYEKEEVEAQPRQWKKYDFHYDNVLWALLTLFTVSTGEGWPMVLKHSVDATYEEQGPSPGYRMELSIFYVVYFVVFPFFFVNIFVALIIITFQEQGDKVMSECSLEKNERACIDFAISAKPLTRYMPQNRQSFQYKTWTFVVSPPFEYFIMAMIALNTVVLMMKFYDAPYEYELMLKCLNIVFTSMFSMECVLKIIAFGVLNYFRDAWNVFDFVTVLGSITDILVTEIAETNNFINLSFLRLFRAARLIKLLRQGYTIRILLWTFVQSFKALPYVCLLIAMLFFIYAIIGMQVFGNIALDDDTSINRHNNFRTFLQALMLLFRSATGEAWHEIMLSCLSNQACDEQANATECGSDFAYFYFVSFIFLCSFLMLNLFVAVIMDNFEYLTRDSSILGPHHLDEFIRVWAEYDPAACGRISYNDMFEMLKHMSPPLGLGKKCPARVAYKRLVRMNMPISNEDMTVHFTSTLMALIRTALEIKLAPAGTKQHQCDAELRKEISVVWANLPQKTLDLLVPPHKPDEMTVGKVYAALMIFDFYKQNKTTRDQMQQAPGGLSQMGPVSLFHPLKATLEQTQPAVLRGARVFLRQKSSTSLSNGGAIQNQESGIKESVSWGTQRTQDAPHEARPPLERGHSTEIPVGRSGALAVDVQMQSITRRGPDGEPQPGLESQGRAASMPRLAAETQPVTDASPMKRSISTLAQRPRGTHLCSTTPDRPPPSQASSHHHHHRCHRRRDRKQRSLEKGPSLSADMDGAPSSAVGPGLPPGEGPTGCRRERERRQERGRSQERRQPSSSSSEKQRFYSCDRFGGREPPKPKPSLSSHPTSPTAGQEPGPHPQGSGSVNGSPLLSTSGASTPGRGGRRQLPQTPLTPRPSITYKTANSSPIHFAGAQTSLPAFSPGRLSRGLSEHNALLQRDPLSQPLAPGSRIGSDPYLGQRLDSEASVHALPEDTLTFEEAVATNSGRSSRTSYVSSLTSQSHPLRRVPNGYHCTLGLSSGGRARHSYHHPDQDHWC

O=C(CCCCC(c1ccccc1)c1ccccc1)N1CCC(NCc2ccccc2)CC1 [Compound 2]
IC50 [1]: 4.16 µM

COc1cc(CN2CCN(CCCCCC(c3ccc(F)cc3)c3ccc(F)cc3)CC2)cc(OC)c1OC [Compound 1]
IC50 [2]: 0.19 µM | IC50 [1]: 7.13 µM
